Assay results reported in PubChem BioAssay (NCI).
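Five compound concentrations were applied to cells in 96-well plates for 48 hours; endpoints were derived by simple linear interpolation of the resulting dose-response curve. GI50: concentration for 50% inhibition of growth. The concentration for full growth arrest is given as TGI.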

Experiments:
Test in all cases: NCI anticancer screen, dose series, 48 h
SNB-19 CNS = test system: SNB-19 CNS
RXF 393 renal = test system: RXF 393 renal
OVCAR-3 ovarian = test system: OVCAR-3 ovarian
NCI/ADR-RES ovarian = test system: NCI/ADR-RES ovarian
DU-145 prostate = test system: DU-145 prostate
HCT-116 colon = test system: HCT-116 colon
MDA-MB-435 = test system: MDA-MB-435
PC-3 prostate = test system: PC-3 prostate
CCRF-CEM leukemia = test system: CCRF-CEM leukemia
HT29 colon = test system: HT29 colon
COLO 205 colon = test system: COLO 205 colon
K-562 leukemia = test system: K-562 leukemia
U251 CNS = test system: U251 CNS
SK-MEL-2 melanoma = test system: SK-MEL-2 melanoma
T-47D breast = test system: T-47D breast
NCI-H460 lung = test system: NCI-H460 lung
SF-539 CNS = test system: SF-539 CNS
UO-31 renal = test system: UO-31 renal
SNB-75 CNS = test system: SNB-75 CNS
EKVX NSCLC = test system: EKVX NSCLC
SK-MEL-5 melanoma = test system: SK-MEL-5 melanoma
M14 melanoma = test system: M14 melanoma
HL-60(TB) leukemia = test system: HL-60(TB) leukemia
SK-OV-3 ovarian = test system: SK-OV-3 ovarian
HOP-92 NSCLC = test system: HOP-92 NSCLC
CAKI-1 renal = test system: CAKI-1 renal
IGROV1 ovarian = test system: IGROV1 ovarian
SK-MEL-28 melanoma = test system: SK-MEL-28 melanoma
NCI-H226 lung = test system: NCI-H226 lung
UACC-257 melanoma = test system: UACC-257 melanoma
HS 578T breast = test system: HS 578T breast
SF-295 CNS = test system: SF-295 CNS
LOX IMVI melanoma = test system: LOX IMVI melanoma
MCF7 breast = test system: MCF7 breast
SN12C renal = test system: SN12C renal
BT-549 breast = test system: BT-549 breast
RPMI-8226 leukemia = test system: RPMI-8226 leukemia
HCC-2998 colon = test system: HCC-2998 colon
OVCAR-8 ovarian = test system: OVCAR-8 ovarian
KM12 colon = test system: KM12 colon
MALME-3M melanoma = test system: MALME-3M melanoma
SW-620 colon = test system: SW-620 colon
NCI-H522 lung = test system: NCI-H522 lung
MDA-MB-231 breast = test system: MDA-MB-231 breast
HCT-15 colon = test system: HCT-15 colon
TK-10 renal = test system: TK-10 renal
ACHN renal = test system: ACHN renal
A498 renal = test system: A498 renal
NCI-H23 lung = test system: NCI-H23 lung
786-0 renal = test system: 786-0 renal
OVCAR-5 ovarian = test system: OVCAR-5 ovarian
UACC-62 melanoma = test system: UACC-62 melanoma
HOP-62 NSCLC = test system: HOP-62 NSCLC
SF-268 CNS = test system: SF-268 CNS
SR leukemia = test system: SR leukemia
MOLT-4 leukemia = test system: MOLT-4 leukemia
OVCAR-4 ovarian = test system: OVCAR-4 ovarian
A549 NSCLC = test system: A549 NSCLC

`OC(CNC1CCCC1)Cn1c2ccccc2c2ccccc21` (stereo unspecified) gave a GI50 (SNB-19 CNS) of 29.4 µM, a TGI (SNB-19 CNS) greater than 100 µM and a GI50 (RXF 393 renal) of 16.3 µM. The TGI (RXF 393 renal) was 52.5 µM, the GI50 (OVCAR-3 ovarian) was 51.3 µM and the TGI (OVCAR-3 ovarian) was greater than 100 µM. For the same molecule, the GI50 (NCI/ADR-RES ovarian) was 40.6 µM, the TGI (NCI/ADR-RES ovarian) was greater than 100 µM and the GI50 (DU-145 prostate) was 82.3 µM. For the same molecule, the TGI (DU-145 prostate) was greater than 100 µM, the GI50 (HCT-116 colon) was 67.3 µM and the TGI (HCT-116 colon) was greater than 100 µM. It also gave a GI50 (MDA-MB-435) greater than 100 µM, a TGI (MDA-MB-435) greater than 100 µM and a GI50 (PC-3 prostate) greater than 100 µM. For the same molecule, the TGI (PC-3 prostate) was greater than 100 µM, the GI50 (CCRF-CEM leukemia) was greater than 100 µM and the TGI (CCRF-CEM leukemia) was greater than 100 µM. The GI50 (HT29 colon) was greater than 100 µM, the TGI (HT29 colon) was greater than 100 µM and the GI50 (COLO 205 colon) was greater than 100 µM. The TGI (COLO 205 colon) was greater than 100 µM, the GI50 (K-562 leukemia) was greater than 100 µM and the TGI (K-562 leukemia) was greater than 100 µM. For the same molecule, the GI50 (U251 CNS) was 21.5 µM, the TGI (U251 CNS) was 56.6 µM and the GI50 (SK-MEL-2 melanoma) was 25.1 µM. For the same molecule, the TGI (SK-MEL-2 melanoma) was 68.6 µM, the GI50 (T-47D breast) was 33.9 µM and the TGI (T-47D breast) was greater than 100 µM. For the same molecule, the GI50 (NCI-H460 lung) was greater than 100 µM, the TGI (NCI-H460 lung) was greater than 100 µM and the GI50 (SF-539 CNS) was 24.4 µM. The TGI (SF-539 CNS) was 82.9 µM, the GI50 (UO-31 renal) was 97.2 µM and the TGI (UO-31 renal) was greater than 100 µM. It also gave a GI50 (SNB-75 CNS) of 12.9 µM, a TGI (SNB-75 CNS) of 26.5 µM and a GI50 (EKVX NSCLC) of 42.3 µM. It also gave a TGI (EKVX NSCLC) greater than 100 µM, a GI50 (SK-MEL-5 melanoma) greater than 100 µM and a TGI (SK-MEL-5 melanoma) greater than 100 µM. The GI50 (M14 melanoma) was greater than 100 µM, the TGI (M14 melanoma) was greater than 100 µM and the GI50 (HL-60(TB) leukemia) was greater than 100 µM. The TGI (HL-60(TB) leukemia) was greater than 100 µM, the GI50 (SK-OV-3 ovarian) was 20.4 µM and the TGI (SK-OV-3 ovarian) was 43.4 µM. The GI50 (HOP-92 NSCLC) was 14.9 µM, the TGI (HOP-92 NSCLC) was 34.7 µM and the GI50 (CAKI-1 renal) was greater than 100 µM. The TGI (CAKI-1 renal) was greater than 100 µM, the GI50 (IGROV1 ovarian) was 72.9 µM and the TGI (IGROV1 ovarian) was greater than 100 µM. For the same molecule, the GI50 (SK-MEL-28 melanoma) was greater than 100 µM, the TGI (SK-MEL-28 melanoma) was greater than 100 µM and the GI50 (NCI-H226 lung) was 32.1 µM. It also gave a TGI (NCI-H226 lung) greater than 100 µM, a GI50 (UACC-257 melanoma) greater than 100 µM and a TGI (UACC-257 melanoma) greater than 100 µM. For the same molecule, the GI50 (HS 578T breast) was 21.8 µM, the TGI (HS 578T breast) was 83.7 µM and the GI50 (SF-295 CNS) was 23.7 µM. It also gave a TGI (SF-295 CNS) of 73.5 µM, a GI50 (LOX IMVI melanoma) greater than 100 µM and a TGI (LOX IMVI melanoma) greater than 100 µM. The GI50 (MCF7 breast) was greater than 100 µM, the TGI (MCF7 breast) was greater than 100 µM and the GI50 (SN12C renal) was 44.2 µM. It also gave a TGI (SN12C renal) greater than 100 µM, a GI50 (BT-549 breast) of 25.1 µM and a TGI (BT-549 breast) greater than 100 µM. The GI50 (RPMI-8226 leukemia) was greater than 100 µM, the TGI (RPMI-8226 leukemia) was greater than 100 µM and the GI50 (HCC-2998 colon) was greater than 100 µM. The TGI (HCC-2998 colon) was greater than 100 µM, the GI50 (OVCAR-8 ovarian) was 27.6 µM and the TGI (OVCAR-8 ovarian) was greater than 100 µM. The GI50 (KM12 colon) was greater than 100 µM, the TGI (KM12 colon) was greater than 100 µM and the GI50 (MALME-3M melanoma) was 37 µM. The TGI (MALME-3M melanoma) was greater than 100 µM, the GI50 (SW-620 colon) was greater than 100 µM and the TGI (SW-620 colon) was greater than 100 µM. For the same molecule, the GI50 (NCI-H522 lung) was 20 µM, the TGI (NCI-H522 lung) was 82.2 µM and the GI50 (MDA-MB-231 breast) was 27.7 µM. It also gave a TGI (MDA-MB-231 breast) greater than 100 µM, a GI50 (HCT-15 colon) of 80.5 µM and a TGI (HCT-15 colon) greater than 100 µM. For the same molecule, the GI50 (TK-10 renal) was 27.5 µM, the TGI (TK-10 renal) was greater than 100 µM and the GI50 (ACHN renal) was 39.6 µM. The TGI (ACHN renal) was greater than 100 µM, the GI50 (A498 renal) was 10.7 µM and the TGI (A498 renal) was 47.7 µM. For the same molecule, the GI50 (NCI-H23 lung) was 28.4 µM, the TGI (NCI-H23 lung) was 83.7 µM and the GI50 (786-0 renal) was 36.1 µM. It also gave a TGI (786-0 renal) greater than 100 µM, a GI50 (OVCAR-5 ovarian) of 35.9 µM and a TGI (OVCAR-5 ovarian) greater than 100 µM. It also gave a GI50 (UACC-62 melanoma) of 32.7 µM, a TGI (UACC-62 melanoma) greater than 100 µM and a GI50 (HOP-62 NSCLC) of 18.9 µM. The TGI (HOP-62 NSCLC) was 42.6 µM, the GI50 (SF-268 CNS) was 27 µM and the TGI (SF-268 CNS) was 80.4 µM. It also gave a GI50 (SR leukemia) greater than 100 µM, a TGI (SR leukemia) greater than 100 µM and a GI50 (MOLT-4 leukemia) greater than 100 µM. The TGI (MOLT-4 leukemia) was greater than 100 µM, the GI50 (OVCAR-4 ovarian) was greater than 100 µM and the TGI (OVCAR-4 ovarian) was greater than 100 µM. For the same molecule, the GI50 (A549 NSCLC) was greater than 100 µM and the TGI (A549 NSCLC) was greater than 100 µM.
